Experimental findings from ChEMBL document CHEMBL1143549, “Novel 4-amino-furo[2,3-d]pyrimidines as Tie-2 and VEGFR2 dual inhibitors” (Bioorg Med Chem Lett, 2005) are described below.

Structures are written as SMILES.

Experiment [1] deals with T1, Angiopoietin-1 receptor (Homo sapiens, UniProt Q02763). Nature of the experiment: Inhibitory concentration against human tyrosine protein kinase receptor TIE-2.
Experiment [2] concerns the target Vascular endothelial growth factor receptor 2 (Homo sapiens, UniProt P35968). Nature of the experiment: Inhibitory concentration against human vascular endothelial growth factor receptor 2.
A further experiment has as its system HFF. Nature of the experiment: Cytotoxic concentration against HFF cells was determined. The format is functional, cell-based. Particulars: Homo sapiens.
The test system of the next experiment is HUVEC. Nature of the experiment: Concentration required for growth inhibition of human umbilical vein endothelial cells stimulated by VEGF. The format is functional, cell-based.
In experiment [3] the target is T1, Angiopoietin-1 receptor. Nature of the experiment: Concentration required to inhibit autophosphorylation of tyrosine protein kinase receptor TIE-2 transfected in 3T3 cells. The class given is functional, cell-based, NIH3T3.

Chain of Vascular endothelial growth factor receptor 2 (P35968 whole entry): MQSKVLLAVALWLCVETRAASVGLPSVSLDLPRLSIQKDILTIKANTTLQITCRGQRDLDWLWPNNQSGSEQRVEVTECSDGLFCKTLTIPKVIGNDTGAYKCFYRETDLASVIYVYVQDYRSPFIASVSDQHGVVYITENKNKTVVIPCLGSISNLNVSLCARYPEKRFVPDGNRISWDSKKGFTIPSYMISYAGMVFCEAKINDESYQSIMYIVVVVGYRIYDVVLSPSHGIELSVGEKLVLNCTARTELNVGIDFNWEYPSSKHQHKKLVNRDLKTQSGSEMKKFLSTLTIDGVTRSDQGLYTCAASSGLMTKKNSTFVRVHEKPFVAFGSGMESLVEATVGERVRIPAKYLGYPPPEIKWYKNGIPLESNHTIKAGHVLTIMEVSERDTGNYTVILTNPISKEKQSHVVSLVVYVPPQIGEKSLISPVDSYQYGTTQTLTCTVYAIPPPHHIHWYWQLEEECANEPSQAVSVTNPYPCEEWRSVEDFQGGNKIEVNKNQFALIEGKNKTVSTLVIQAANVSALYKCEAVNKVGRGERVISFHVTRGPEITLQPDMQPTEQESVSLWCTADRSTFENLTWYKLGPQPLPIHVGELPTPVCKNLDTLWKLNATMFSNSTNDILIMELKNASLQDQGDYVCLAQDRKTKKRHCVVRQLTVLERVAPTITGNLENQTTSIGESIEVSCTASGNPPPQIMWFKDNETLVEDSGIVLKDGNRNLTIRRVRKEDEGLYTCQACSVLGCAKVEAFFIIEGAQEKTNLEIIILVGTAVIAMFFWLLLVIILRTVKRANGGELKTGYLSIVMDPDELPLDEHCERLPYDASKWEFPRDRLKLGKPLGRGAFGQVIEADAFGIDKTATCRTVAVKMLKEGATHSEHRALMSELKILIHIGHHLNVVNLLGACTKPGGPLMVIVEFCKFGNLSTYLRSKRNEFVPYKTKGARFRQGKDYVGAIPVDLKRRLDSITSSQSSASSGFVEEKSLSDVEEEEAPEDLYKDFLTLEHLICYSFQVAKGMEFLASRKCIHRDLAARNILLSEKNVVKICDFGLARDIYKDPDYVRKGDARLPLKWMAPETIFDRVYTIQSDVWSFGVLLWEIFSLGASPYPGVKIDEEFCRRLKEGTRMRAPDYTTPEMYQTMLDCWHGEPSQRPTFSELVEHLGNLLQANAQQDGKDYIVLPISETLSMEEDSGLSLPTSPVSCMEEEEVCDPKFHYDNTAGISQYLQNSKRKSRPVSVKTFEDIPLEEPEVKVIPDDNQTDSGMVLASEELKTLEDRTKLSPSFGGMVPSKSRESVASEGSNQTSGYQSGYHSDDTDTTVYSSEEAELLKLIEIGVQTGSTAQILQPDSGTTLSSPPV
T1 sequence (Q02763 whole entry): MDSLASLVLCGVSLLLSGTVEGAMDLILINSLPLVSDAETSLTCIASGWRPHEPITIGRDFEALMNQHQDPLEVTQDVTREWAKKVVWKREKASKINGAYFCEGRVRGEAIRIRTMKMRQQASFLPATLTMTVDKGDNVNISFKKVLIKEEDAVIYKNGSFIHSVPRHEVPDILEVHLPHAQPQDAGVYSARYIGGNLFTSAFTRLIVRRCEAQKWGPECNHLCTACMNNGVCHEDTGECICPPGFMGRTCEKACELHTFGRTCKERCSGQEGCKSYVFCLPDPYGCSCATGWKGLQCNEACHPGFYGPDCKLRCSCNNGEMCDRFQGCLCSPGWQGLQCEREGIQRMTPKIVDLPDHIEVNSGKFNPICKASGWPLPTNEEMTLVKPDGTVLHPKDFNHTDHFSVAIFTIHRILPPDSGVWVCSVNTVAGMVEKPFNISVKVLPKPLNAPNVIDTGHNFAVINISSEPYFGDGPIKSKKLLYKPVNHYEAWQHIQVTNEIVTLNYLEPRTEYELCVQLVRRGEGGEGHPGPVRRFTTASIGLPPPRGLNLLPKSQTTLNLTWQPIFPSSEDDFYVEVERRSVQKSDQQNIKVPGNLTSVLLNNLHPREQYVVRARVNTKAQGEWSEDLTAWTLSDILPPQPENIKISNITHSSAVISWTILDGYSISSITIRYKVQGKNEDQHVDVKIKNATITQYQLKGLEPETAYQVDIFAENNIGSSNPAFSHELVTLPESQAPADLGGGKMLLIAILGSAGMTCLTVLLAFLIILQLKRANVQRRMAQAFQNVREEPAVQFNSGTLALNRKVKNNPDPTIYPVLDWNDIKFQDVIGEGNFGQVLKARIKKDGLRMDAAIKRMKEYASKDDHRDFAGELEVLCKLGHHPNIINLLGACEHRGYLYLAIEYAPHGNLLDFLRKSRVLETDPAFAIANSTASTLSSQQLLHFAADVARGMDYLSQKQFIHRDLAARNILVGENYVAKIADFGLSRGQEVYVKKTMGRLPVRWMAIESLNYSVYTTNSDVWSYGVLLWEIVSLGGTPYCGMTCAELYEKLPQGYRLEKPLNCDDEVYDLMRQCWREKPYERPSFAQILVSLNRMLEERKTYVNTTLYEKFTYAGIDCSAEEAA

As to `COc1ccc(-c2oc3ncnc(N)c3c2-c2ccc(NC(=O)Nc3cc(C(F)(F)F)ccc3F)cc2)cc1`, the IC50 against Angiopoietin-1 receptor [1] is 2 nM; in experiment [2], 3 nM; in the experiment with HFF, 790 nM; in the experiment on HUVEC, 45 nM; at Angiopoietin-1 receptor [3], 6.3 nM.
For the compound `COc1ccc(-c2oc3ncnc(N)c3c2-c2cccc(NC(C)=O)c2)cc1`, the half-inhibitory concentration (IC50) on Angiopoietin-1 receptor [1] was above 20000 nM.
In the case of `COc1ccc(-c2oc3ncnc(N)c3c2-c2ccc(OC)cc2)cc1`, the IC50 against Angiopoietin-1 receptor [1] was determined as 1000 nM; in experiment [2], 1120 nM.
In experiment [2], `COc1ccc(-c2c(-c3ccc(Cl)c(Cl)c3)oc3ncnc(N)c23)cc1` displayed a concentration for half-maximal inhibition (IC50) above 20000 nM.
For `COc1ccc(-c2coc3ncnc(N)c23)cc1` [GW642125X], the concentration for half-maximal inhibition (IC50) against Angiopoietin-1 receptor [1] is above 20000 nM; in experiment [2], 5500 nM.
On to `COc1ccc(-c2cc3c(N)ncnc3o2)cc1` [GW642138X], for which the 50% inhibitory concentration (IC50) against Angiopoietin-1 receptor [1] was above 20000 nM; in experiment [2] it was above 17000 nM.

Broadly, the IC50 is the concentration that gives 50% inhibition. Higher therefore signals weaker potency in that assay.
